# Source: patent publication US11833120B2, “Binding protein drug conjugates comprising anthracycline derivatives” (priority 2014, dated 2023)
# Columns and labels:
# [1] = test system: ovarian (A2780) cancer cell line; details: A2780, WO2012/073217; cited from earlier work
# [2] = test system: breast cancer (MCF7) cell line; details: MCF7, WO2012/073217; cited from earlier work
# [3] = test system: L428, a Hodgkin's lymphoma cell line expressing low to moderate levels of CD30; experiment: In vitro cytotoxicity assay (CellTiter-Glo) on L428; format: cell-based, human; details: CD30 LO L428 cells, 4 days, up to 20 μg/ml
# Protocol: For this, cells were plated on 96-well plates in 100 μl RPMI/10% FCS at a density of 10^4 cells per well and grown at 37° C. in a humidified incubator at 5% CO2 atmosphere. After one day incubation, 25 μl medium was carefully removed from each well and replaced by 25 μl of 3.5-fold serial dilutions of each ADC in growth medium, resulting in final ADC concentrations ranging from 20 μg/ml to 0.25 ng/ml. Each dilution was done in duplicate. After 4 additional days, plates were removed from the incubator and equilibrated to room temperature. After approximately 30 minutes, 100 μl CellTiter-Glo® Luminescent Solution (Promega, Cat. No G7570) was added to each well and, after shaking the plates at 450 rpm for 5 min followed by a 10 min incubation without shaking, luminescence was measured on a Tecan Infinity F200 with an integration time of 1 second per well.
# Cells were incubated with serial dilutions of ADCs for 4 days, after which CellTiter-Glo® Luminescent Solution (Promega) was added and viable cells were quantified by measuring the luminescence on a Tecan Infinity F200.
Compound,potency for in vitro cell killing [1],potency for in vitro cell killing [2],cell killing (in words) [3]
COc1cccc2c1C(=O)c1c(O)c3c(c(O)c1C2=O)C[C@@](O)(C(=O)CO)C[C@@H]3O[C@H]1C[C@H]2[C@H](O[C@@H]3[C@@H](OC)OCCN32)[C@H](C)O1 [PNU-159682],pico- to femtomolar range,pico- to femtomolar range,
Adcetris,,,inefficient at killing
cAc10-PNU-EDA-Gly5,,,"only at higher concentrations, similar to the control ADCs employed"
